Measurements as given in patent US9452217B2, “Methods for potentiating immune response for the treatment of infectious diseases and cancer” (Nitor Therapeutics, priority 2013, dated 2016).

What was measured:
[1] = target: T1, human TLR2 (Homo sapiens, UniProt O60603); assay: TLR ligand screening: NF-κB activation (SEAP reporter) in HEK293 cells expressing TLR2; type: cell-based; conditions: one concentration: Guanosine 100 uM, NTR001 10 uM, Inosine 100 uM; FIG. 2
T1 construct: expressed in transfected cells; host or cells: HEK293
Method: (§1) Method: TLR stimulation is tested by assessing NF-κB activation in HEK293 cells expressing a given TLR. The Secreted Embryonic Alkaline Phosphatase (SEAP) reporter is under the control of a promoter inducible by the transcription factor NF-κB. This reporter gene allows the monitoring of signaling through the TLR, based on the activation of NF-κB. The compounds are evaluated at one concentration and compared to control ligands. This step is performed in triplicate.

[2] = target: T2, human TLR4 (Homo sapiens, UniProt O00206+Q9Y6Y9); assay: TLR ligand screening: NF-κB activation (SEAP reporter) in HEK293 cells expressing TLR4; type: cell-based; conditions: one concentration: Guanosine 100 uM, NTR001 10 uM, Inosine 100 uM; FIG. 2
T2 construct: expressed in transfected cells; host or cells: HEK293
Method: as §1

[3] = tested on: HCV; conditions: chronically HCV infected patients; cited from earlier work
[4] = tested on: endogenous interferon-a (IFN-a); conditions: healthy volunteers, oral; cited from earlier work
[5] = tested on: B16 tumors; assay: Syngeneic mouse melanoma model; type: in vivo, C57BL/6 mice; conditions: cyclophosphamide 100 mg/kg IP single dose; FIG. 6
Method: Method: Cancer cells were injected subcutaneously in right flank of each mouse, 1×10^4 cells in 0.1 ml PBS with 20% Matrigel. Treatment with the NTR001 was initiated on day 6 after injection of tumor cells. Tumor volume and survival were recorded every 3-4 days.

[6] = tested on: L. monocytogenes (ATCC Strain35152, hemolytic substrain); assay: Mouse model of L. monocytogenes infection; conditions: Balb/c mice infected i.v. with 1×10^6 CFU; 30 mg/kg PO or IP, 2 mg/kg drinking water; FIGS. 7 and 9
[7] = tested on: immune response to tetanus toxoid vaccine; assay: PNPi as adjuvant in tetanus toxoid vaccine efficacy study (mouse); type: in vivo; conditions: mice, p.o., ELISA

T1 sequence (O60603 21-784): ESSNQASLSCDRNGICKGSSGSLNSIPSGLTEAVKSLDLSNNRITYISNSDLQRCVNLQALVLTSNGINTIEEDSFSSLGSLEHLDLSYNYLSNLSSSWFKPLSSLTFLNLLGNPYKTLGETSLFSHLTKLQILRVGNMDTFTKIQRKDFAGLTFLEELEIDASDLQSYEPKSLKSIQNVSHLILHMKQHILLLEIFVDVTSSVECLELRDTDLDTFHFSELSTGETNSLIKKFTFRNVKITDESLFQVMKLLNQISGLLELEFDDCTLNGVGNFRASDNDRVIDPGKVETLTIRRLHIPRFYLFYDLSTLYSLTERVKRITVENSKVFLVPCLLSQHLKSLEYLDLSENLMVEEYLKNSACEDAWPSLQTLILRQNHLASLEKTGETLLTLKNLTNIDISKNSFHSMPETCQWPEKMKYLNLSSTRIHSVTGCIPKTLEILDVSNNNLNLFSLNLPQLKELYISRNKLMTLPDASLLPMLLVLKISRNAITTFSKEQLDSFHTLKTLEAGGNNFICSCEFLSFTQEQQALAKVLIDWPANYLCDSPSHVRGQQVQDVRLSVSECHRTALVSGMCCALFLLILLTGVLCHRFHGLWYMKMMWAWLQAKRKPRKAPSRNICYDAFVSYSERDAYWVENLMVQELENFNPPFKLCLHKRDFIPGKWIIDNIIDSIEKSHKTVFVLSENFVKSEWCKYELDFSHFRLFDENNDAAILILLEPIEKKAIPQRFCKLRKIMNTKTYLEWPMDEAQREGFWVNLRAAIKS
T2 sequence (O00206 24-839): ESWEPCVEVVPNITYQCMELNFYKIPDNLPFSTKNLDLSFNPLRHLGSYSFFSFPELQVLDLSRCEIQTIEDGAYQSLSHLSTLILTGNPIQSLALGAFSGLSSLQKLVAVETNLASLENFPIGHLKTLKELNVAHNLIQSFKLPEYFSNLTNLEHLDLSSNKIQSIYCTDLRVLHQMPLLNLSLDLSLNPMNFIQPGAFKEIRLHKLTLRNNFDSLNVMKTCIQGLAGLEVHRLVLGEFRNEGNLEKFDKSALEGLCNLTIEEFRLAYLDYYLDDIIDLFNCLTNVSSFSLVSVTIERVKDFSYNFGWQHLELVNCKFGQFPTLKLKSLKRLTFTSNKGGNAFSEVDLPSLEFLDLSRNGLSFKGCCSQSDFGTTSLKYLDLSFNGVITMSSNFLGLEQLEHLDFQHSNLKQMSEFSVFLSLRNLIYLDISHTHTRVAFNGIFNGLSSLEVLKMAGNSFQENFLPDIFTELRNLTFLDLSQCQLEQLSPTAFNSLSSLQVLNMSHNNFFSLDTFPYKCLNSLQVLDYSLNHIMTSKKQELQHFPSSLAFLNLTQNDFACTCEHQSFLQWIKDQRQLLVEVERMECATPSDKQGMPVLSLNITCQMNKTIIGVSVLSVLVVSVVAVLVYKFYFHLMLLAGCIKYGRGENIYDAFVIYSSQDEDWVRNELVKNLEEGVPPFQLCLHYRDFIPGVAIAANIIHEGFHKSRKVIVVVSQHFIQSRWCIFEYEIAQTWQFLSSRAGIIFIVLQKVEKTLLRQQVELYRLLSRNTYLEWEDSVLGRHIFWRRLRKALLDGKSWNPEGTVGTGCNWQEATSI
T2 sequence (Q9Y6Y9 17-160 limits assumed): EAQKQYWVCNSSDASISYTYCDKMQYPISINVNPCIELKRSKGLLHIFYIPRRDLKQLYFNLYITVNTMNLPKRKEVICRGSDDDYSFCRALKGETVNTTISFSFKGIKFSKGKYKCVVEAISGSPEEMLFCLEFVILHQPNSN

Nc1nc2c(ncn2[C@@H]2O[C@H](CO)[C@@H](O)[C@H]2O)c(=O)[nH]1 [Guanosine]
stimulatory effect on human TLR2 [1]: significant stimulatory effect | stimulatory effect on human TLR4 [2]: significant stimulatory effect

CC(=O)O[C@@H]1C[C@@H](CO)O[C@H]1n1c(=O)sc2cnc(N)nc21 [ANA773]
HCV RNA [3]: dose dependent reduction | induction of endogenous interferon-a [4]: induction of endogenous interferon-a (IFN-a) of multiple subtypes

O=P1(N(CCCl)CCCl)NCCCO1 (centres unmarked) [Cyclcophosphamide, cyclophosphamide]
survival [5]: 30%

O=c1[nH]cnc2c(CN3C[C@H](CO)[C@@H](O)C3)c[nH]c12 [NTR002, 1,5-dihydro-7-[[(3R,4R)-3-hydroxy-4-(hydroxymethyl)pyrrolidin-1-yl]methyl]-4H-pyrrolo [3,2-d]pyrimidin-4-one]
weight loss [6]: significant decrease in weight loss | serum tetanus toxoid antibody titers compared to the vehicle treated group ([7]; 30 mg/kg (6 days of treatment) and 60 mg/kg (3 days of treatment), day 38, FIG. 3): significantly elevated | serum interferon-g compared to the vehicle treated group ([7]; high dose group 60 mg/kg, day 30, FIG. 4): elevated
